In patent US20250049828A1, “PHARMACEUTICAL COMPOSITION FOR TREATING TUMORS AND USE” (INXMED (NANJING) CO., LTD., priority 2021, published 2025):

Assays:
[1] = tested on: ovarian cancer cells SK-OV-3; assay: CCK8 cell viability / cell killing curve; format: cell-based; conditions: Homo sapiens, SK-OV-3, drug alone, 72 hours
Description: A 96-well cell plate was plated with 5000 SK-OV-3 cells/well. After 24 hours, a drug with a maximum concentration of 20 μM was added and diluted with a 3-fold gradient dilution to set a total of 9 concentrations, with the lowest concentration being […]. After the drug and cells were co-incubated for 72 hours, 10 μL of CCK8 solution was added to each well, and the plate was incubated in a 37° C. and 5% carbon dioxide incubator for 2 hours. Then, a microplate reader was used for reading with a set absorbance wavelength of 450 nm. The values read were compared with the DMSO control group and plotted using Graphpad 8.0.
A 96-well cell plate was plated with 5000 SK-OV-3 cells/well. […] Adriamycin at these dosages was combined with 3 μM IN10018. After 72 hours of co-culture with the cells, cell viability was detected using CCK8 method. Graphpad 8.0 was used for plotting.
A 96-well cell plate was plated with 5000 SK-OV-3 cells/well. […] Adriamycin at these dosages was combined with 3 μM Defactinib. After 72 hours of co-culture with the cells, cell viability was detected using CCK8 method. Graphpad 8.0 was used for plotting.

CT26 cells = assay: Microscope observation and flow cytometry of CRT and Annexin-V positive cells; format: cell-based, mouse; conditions: IN10018 5 μM, Adriamycin 1 μM, alone or combined, 48 hours
Description: Then the cells were collected for flow analysis.
The culture conditions were 37° C. and 5% CO2.

IFN-γ = assay: ELISA of IFN-γ in serum of CT26 tumor-bearing mice; format: in vivo, BALB/c mice; conditions: IN10018 25 mg/kg PO QD × 8, Doxil 3 mg/kg i.v. QW × 2; blood 24 hours after the second administration of Doxil; n=5
Description: (§1) BALB/c mice (from Shanghai Lingchang Biotechnology Co., Ltd.) were used to construct the CT26 tumor cell model. When the tumor volume reached about 40 to 60 mm^3, the mice were randomly divided into groups according to the tumor volume and administered.
(§2) 24 hours after the second administration of Doxil, blood was collected from the orbit of four groups of animals. The blood was placed in a collection tube without anticoagulant and left standing to naturally coagulate at room temperature for 30 to 60 minutes. When the blood coagulated, the blood was centrifuged at 1000 rpm, 4° C. for 10 minutes. The upper serum was transferred to a new collection tube and stored in a −80° C. freezer.

Granzyme B = assay: ELISA of Granzyme B in serum of CT26 tumor-bearing mice; format: in vivo, BALB/c mice; conditions: IN10018 25 mg/kg PO QD × 8, Doxil 3 mg/kg i.v. QW × 2; blood 24 hours after the second administration of Doxil; n=5
Description: as §1, §2

[2] = tested on: FAK and phosphorylated FAKY397; assay: FAK knockdown efficiency by western blot; format: cell-based; conditions: 50 nM FAKsiRNA, SK-OV-3 cells, western blot 72 hours after transfection
Description: SK-OV-3 cells were used as the research object, and Lipofectamine 3000 was used to transfect the cells with 50 nM FAKsiRNA. After the assay, proteins were collected to detect the expression of FAK and phosphorylated FAKY397.
Lipofectamine 3000 was used as a transfection reagent. Downstream combination and ICD biomarker assays can be performed 24 hours after the transfection. 72 hours after the transfection, SK-OV-3 cell proteins were collected, and western blot was performed to detect the amount of phosphorylated FAKY397, FAK and alpha tubulin.

Row | Compound | IC50 [1] | cell-killing effect observed under a microscope (CT26 cells) | IFN-γ protein concentration in serum (IFN-γ) | Granzyme B protein concentration in serum (Granzyme B) | knockdown effect on phosphorylated FAKY397 and total FAK proteins [2]
1 | COc1cccc2c1C(=O)c1c(O)c3c(c(O)c1C2=O)C[C@@](O)(C(=O)CO)C[C@@H]3O[C@H]1C[C@H](N)[C@H](O)[C@H](C)O1 [Adriamycin, doxorubicin, reference compound] | 0.3 µM | had cell-killing effect |  |  | 
2 | COc1cc(C(=O)NC2CCN(C)CC2)c(F)cc1Nc1ncc(C(F)(F)F)c(Oc2cccc3c2C(=O)N(C)C3)n1 [IN10018] | 10 µM | in good condition | 367.24 ± 7.34 pg/mL | 50.48 ± 53.08 pg/mL | 
3 | FAKsiRNA: small interfering RNA for FAK knockdown, GenePharma; GGGCAUCAUUCAGAAGAUATT / UAUCUUCUGAAUGAUGCCCTT (chemistry not given here) |  |  |  |  | significant knockdown effect
